# Reference: US20070190181A1, “Methods of treating cancer with lipid-based platinum compound forumulations administered intravenously” (priority 2005, published 2007)
# Legend:
# [1] = Pharmacokinetics and organ distribution of ip and iv injected L-CDDP and CDDP (platinum by ICP-MS); assay type: in vivo, ICR mice; settings: 8 mg/kg
# Experimental: Pharmacokinetics and organ distribution in animals of ip and iv injected lipid-based cisplatin and cisplatin (Part II). Sixty ICR mice (female, 7 weeks old) were divided into 4 groups. They received intraperitoneal or intravenous injection of L-CDDP or CDDP, separately. The dose was 12 mg/kg for ip L-CDDP and 8 mg/kg for the rest of treatment groups. At each designed time point, three to four mice were anaesthetized with 70 mg/kg of Nembutal ip (e.g., 3, 20, and 40 min, and 2, 8, 24, 48, and 72 h). […] Organs including liver, lung, and spleen were resected from the mice. The organ samples were homogenized in distilled water (4-fold of the sample weight) and digested with nitric acid. The platinum concentration in each sample was measured by Inductively Coupled Plasma-Mass Spectrometer (ICP-MS). The pharmacokinetics profiles (FIGS. 4, 5, and 6, all Y-axes are concentration of μg platinum in one gram of tissue or fluid per mg of injected dose) and parameters (Table 4) of each formulation were simulated and calculated.
# [2] = system: Lewis Lung cells; assay: murine Lewis lung tumor metastasis model (lung tumor weight); assay type: in vivo, C57B1/6 mice
# [3] = Nephrotoxicity at MTD (BUN and kidney pathology grading); assay type: in vivo; settings: four days after injection
# Text: Nephrotoxicity. ICR mice, 7 weeks old, female, were divided into 4 groups with 3 to 4 mice in each. […] Four days after the injection, the mice were euthanized with Nembutal ip. The blood was drawn and the serum was isolated. The blood urea nitrogen (BUN) was quantitatively measured with a calorimetric method at Antech Diagnostics. Organs including duodenum, heart, kidney, liver, lung, and spleen were resected from the mice and fixed with 10% buffered Formalin. The fixed tissues were processed with standard procedure for H and E staining. A pathology expert Dr. Carman Tomos at the Memorial Sloan-Kettering Cancer Center examined kidney tissues and gave a toxicity grade to each kidney tissue sample. The grading was based on the general pathology guidelines for kidney toxicity.
smiles,measurement,setting,value
"N.N.[Cl][Pt][Cl] [CDDP, cis diamminedichloroplatinum]",AUC,[1]; Liver,19.96 µg·h/g/µg
same,AUC,[1]; Lung,5.58 µg·h/g/µg
same,AUC,[1]; Spleen,8.11 µg·h/g/µg
same,inhibition of growth of Lewis lung tumors,"[2]; inhalation therapy, nebulized 1 mg/ml, days 5, 8 and 11",did not significantly inhibit
same,inhibition of tumor growth (Lewis lung tumor weight vs saline),"[2]; three iv doses of 2 mg/kg on days 5, 8 and 11 post tumor cell injection",no significant inhibition of tumor growth
same,increase of BUN level compared with normal controls,"[3]; ip, p=0.04",2.1 fold
same,increase of BUN level compared with normal controls,"[3]; iv, p=0.008",6.8 fold
